{"source": "patent US11992495B2", "about": "(THE REGENTS OF THE UNIVERSITY OF CALIFORNIA, priority 2017, dated 2024)", "tested_on": "lymph node mononuclear cells (T cell proliferation in response to HEL)", "experiment": "T cell recall responses to HEL, 3H-thymidine uptake (proliferation)", "assay_type": "cell-based, Mice", "details": "alprazolam (Xanax) alone, any of the dosages tested", "description": "Mice were injected with hen egg lysozyme (HEL, a prototypic foreign antigen) in 50% complete Freund's adjuvant (CFA) in their hind food-pad. […] During the last 16 h of a 96 h incubation period, […] ^3H thymidine was added into each well.", "data": [{"compound": "Cc1nnc2n1-c1ccc(Cl)cc1C(c1ccccc1)=NC2", "note": "[alprazolam]", "values": [{"measurement": "effect on T cell proliferation", "value": "did not have a significant effect"}]}]}
